This note sets out measurements from patent US20180110978A1, “SYNERGISTIC REGULATED CELL DEATH INDUCTION WITH HSP90 INHIBITORS AND NANOSECOND PULSED ELECTRIC FIELDS” (Old Dominion University Research Foundation, priority 2015, published 2018).

The subject of one data set is cleaved caspase 3. In words: Western blot for cleaved caspase 3 relative to β-actin (LI-COR Odyssey CLx). The data set is classed as cell-based. The text has this:
FIG. 7 is a graphical representation illustrating western blot test results for cleaved caspase 3 when employing an Hsp90 inhibitor at different concentrations, according to an embodiment. In FIG. 7, western blot test results 700 include stained bands 702 and cleaved caspase 3 fold change graph 708. In FIG. 7, stained bands 702 include cleaved caspase 3 bands 704 and β-actin bands 706. In FIG. 7, cleaved caspase 3 fold change graph 708 includes bars 710, 712, and 714. In an example, the western blot data is quantified using a LI-COR Odyssey CLx imaging system. In FIG. 7, stained bands 702 is a photographic representation depicting an expression of cleaved caspase 3 as a function of concentration of an Hsp90 inhibitor (e.g., AUY922). In FIG. 7, cleaved caspase 3 fold change graph 708 is a graphical representation illustrating fold changes of caspase 3 with respect to β-actin. FIG. 8 is a graphical representation illustrating western blot test results for cleaved caspase 3 when employing an Hsp90 inhibitor alone, nsPEF alone, or a combination of both treatments, according to an embodiment. In FIG. 8, western blot test results 800 include stained bands 802 and caspase 3 fold change graph 808. In FIG. 8, stained bands 802 include cleaved caspase 3 bands 804, β-actin bands 806, and caspase expression 807. In FIG. 8, caspase 3-fold change graph 808 includes bars 810, 812, and 814. In an example, the western blot data is quantified using LI-COR Odyssey CLx imaging system. In some embodiments, stained bands 802 is a photographic representation depicting an expression of cleaved caspase 3 as a function of the treatment employed. In these embodiments, caspase 3 fold change graph 808 is a graphical representation illustrating fold changes of caspase 3 with respect to β-actin.
In general terms: A western blot detects proteins with antibodies after separation by electrophoresis.

The test system of another data set is N1-S1 rat HCC cells. Briefly: Cell viability of N1-S1 rat HCC cells (CellTiter-Glo) after Hsp90 inhibitor and/or nsPEF. The data set is classed as cell-based. The method, then: In some embodiments, N1-S1 rat HCC cells are exposed to an inhibitor of Hsp90 and then exposed to nsPEFs to cause cell death. In these embodiments, using the aforementioned methodology the cells mortality is greater than when either Hsp90 inhibitor or nsPEFs are employed alone. In an example, N1-S1 rat HCC cells are treated with 0.3 μM 17-AAG and incubated for 24 hours. In this example, after the 24 hours incubation period, the N1-S1 rat HCC cells are treated with a single 600 ns pulse with increasing electric field intensities (from about 10 kV/cm to about 60 kV/cm). Further to this example, cell viability is determined employing CellTiter-Glo (available from Promega, Madison, Wis.) 24 hours after pulsing.
In an example, mitochondria membrane potential (ΔΨm) and Ca^2+ influx are determined by employing Tetramethylrhodamine, ethyl ester (TMRE) Assay Kit and green-fluorescent calcium indicator, Fluo-4, respectively, 10 minutes after pulsing. In this example, cell viability is determined employing CellTiter-Glo (available from Promega, Madison, Wis.) 24 hours after pulsing.
In some embodiments, bar 502 illustrates the percentage of cell viability for a control sample where none of the treatments are employed. In these embodiments, bar 504 illustrates the percentage of cell viability when employing an Hsp90 inhibitor at a concentration of 0.3 μM (e.g., 17-AAG) without nsPEFs. Further to these embodiments, bar 506 illustrates the percentage of cell viability when employing only a single 600 nsPEF of 60 kV/cm. Still further to these embodiments, bar 508 illustrates the percentage of cell viability when employing both treatments (0.3 μM 17-AAG and single 600 ns pulse of 60 kV/cm). In an example, N1-S1 HCC cells are employed for the cell viability test.

Data set [1] relates to caspase 3/7 catalytic activity in N1-S1 cells. Briefly: Caspase 3/7 catalytic activity in N1-S1 cells (Caspase-Glo). The data set is classed as cell-based, rat. The method, then:
In some embodiments, bar graph 402 represents the percentage change in caspase 3/7 catalytic activity after four (4) hours of incubation with 0.3 μM 17-AAG followed by the application of a single 600 ns pulse at different electric field intensities (from 0 to about 60 kV/cm). In these embodiments, bar graph 432 represents the percentage change in […] after 16 hours of incubation with 0.3 μM 17-AAG followed by the application of a single 600 ns pulse at different electric field intensities (from 0 to about 60 kV/cm).
In some embodiments, N1-S1 cells were incubated with or without 17-AAG for 4 hours or 16 hours to determine a synergistic activation of caspase 3/7 with 17-AAG and nsPEFs. In these embodiments, after the incubation period, N1-S1 cells were then treated with nsPEFs with increasing electric fields (one 600 ns pulse) and assayed for caspase 3/7 catalytic activity two (2) hours after pulsing. In an example, caspase 3/7 catalytic activity is measured employing Caspase-Glo (available from Promega, Madison, Wis.) 2 hours after pulsing.

In the case of `CCNC(=O)c1noc(-c2cc(C(C)C)c(O)cc2O)c1-c1ccc(CN2CCOCC2)cc1` [AUY922], the “ratio of caspase 3 to β-actin (fold change)” value in the data set on cleaved caspase 3 (1 μM AUY922, no nsPEF (bar 712, FIG. 7), no AUY922 about 1) was “about 2”; in the data set on cleaved caspase 3 (1 μM AUY922 alone (bar 814, FIG. 8)) it was roughly 3; in the data set with cleaved caspase 3 (1 μM AUY922 plus nsPEF of 600 ns at 20 kV/cm (bar 812, FIG. 8)) it was “about 7”; in the data set with cleaved caspase 3 (10 μM AUY922, no nsPEF (bar 714, FIG. 7), no AUY922 about 1), “about 7”.

As to `C=CCNC1=C2C[C@@H](C)C[C@H](OC)[C@H](O)[C@@H](C)/C=C(\C)[C@H](OC(N)=O)[C@@H](OC)/C=C\C=C(/C)C(=O)NC(=CC1=O)C2=O` [17-AAG], in the data set with N1-S1 rat HCC cells (0.3 μM 17-AAG alone, 24 h incubation, no nsPEF (bar 116, FIG. 1), viability 24 h after pulsing time), the cell viability reduction entry is recorded as “about 25%”. For the same compound, in the data set with N1-S1 rat HCC cells (0.3 μM 17-AAG plus nsPEF at about 50 kV/cm (bar 610, FIG. 6)), the “additional increase in the reduction of cell viability” value was “about 45%”. In addition, the “percentage of cell viability” value in the data set on N1-S1 rat HCC cells (0.3 μM 17-AAG plus single 600 ns pulse of 60 kV (bar 508, FIG. 5)) is “about 17%”. Moreover, in the data set with N1-S1 rat HCC cells (cells pre-treated with 0.3 μM 17-AAG, then single 600 ns pulse of 50 kV/cm), the cells killed worked out at 80%. Besides, in data set [1] (0.3 μM 17-AAG 4 h, then 600 ns pulse at higher electric fields 50-60 kV/cm (bars 428, 430)), the “effect of 17-AAG on the nsPEF-induced modest change in catalytic activity” value was “no effect”. In addition, in data set [1] (0.3 μM 17-AAG 4 h, then 600 ns pulse at lower electric fields 10-40 kV/cm (bars 420-426)), the “effect of 17-AAG on the nsPEF-induced modest change in caspase activity” value is listed as “no effect”. Besides, the “change in caspase 3/7 activity” value in data set [1] (0.3 μM 17-AAG alone, 4 hours of incubation (bar 418, FIG. 4)) is given as “no significant change”; in data set [1] (0.3 μM 17-AAG, 16 h of incubation, unaffected by nsPEFs (FIG. 4)), “significant increases”. Moreover, the “synergistic effects on caspase 3/7 activity of 17-AAG together with nsPEFs” value in data set [1] (the two treatments included together) is recorded as “no synergistic effects”.
